Structures are written as SMILES.

In test [1] the target is purified recombinant COX-1 enzyme (Homo sapiens, UniProt P23219). Nature of the test: COX-1 enzyme based assay. It is filed as biochemical. The following applies: Conc. 10 μM. The method, then:
COX-1 and COX-2 Enzyme Based Assay
COX-2 enzyme based assays were carried out to check the inhibitory potential of test compounds on the production of prostaglandin by purified recombinant COX-1/COX-2 enzyme (Proc. Nat. Acad. Sci. USA, 88, 2692-2696, 1991; Clin. Immunoassay 15, 116-120, 1992) In this assay, the potential of the test compound to inhibit the production of prostaglandin either by COX-1 or COX-2 from arachidonic acid (substrate) was measured. This was an enzyme based in-vitro assay to evaluate selective COX inhibition with good reproducibility.
Arachidonic acid was converted to PGH2 (Intermediate product) by COX1/COX-2 in presence or absence of the test compound. The reaction was carried out at 37° C. and after 2 minutes it was stopped by adding 1M HCl. Intermediate products PGH2 was converted to a stable Prostanoid product PGF2α by SnCl2 reduction. The amount of PGF2α produced in the reaction was inversely proportional to the COX inhibitory potential of the test compound. The prostanoid product was quantified via enzyme immunoassay (EIA) using a broadly specific antibody that binds to all the major forms of Prostaglandin, using Cayman ELISA kit as per the procedure outlined by the manufacturer Cayman Chemicals, Ann Arbor, USA).

Test [2] has as its system Carrageenan induced paw edema in rat. As to the kind of experiment: Carrageenan induced paw edema test in rat. It counts as in vivo. The following applies: 5 mg/kg oral; male wistar rats; 3 hours after carrageenan. The procedure:
Carrageenan Induced Paw Edema Test in Rat
The carrageenan paw edema test was performed as described by Winter et al (Proc. Soc. Exp. Biol. Med, 111, 544, 1962). Male wistar rats were selected with body weights equivalent within each group. The rats were fasted for eighteen hours with free access to water. The rats were dosed orally with the test compound suspended in vehicle containing 0.25% carboxymethylcellulose and 0.5% Tween 80. The control rats were administered with vehicle alone. After an hour, the rats were injected with 0.1 ml of 1% Carrageenan solution in 0.9% saline into the sub-plantar surface of the right hind paw. Paw volume was measured using digital plethysmograph before and after 3 hours of carrageenan injection. The average of foot swelling in drug treated animals was compared with that of control animals. Anti-inflammatory activity was expressed as the percentage inhibition of edema compared with control group [Arzneim-Forsch/Drug Res., 43 (I), 1,44-50,1993; Otterness and Bliven, Laboratory Models for Testing NSAIDs, In Non-Steroidal Anti-Inflammatory Drugs, (J. Lombardino, ed. 1985)].
For orientation: The carrageenan paw model is a standard test of acute inflammation.

Another test relates to NCI-H460. As to the kind of experiment: Anti-cancer screen (MTT), NCI-H460. It is filed as cell-based. The following applies: Homo sapiens, NCI-H460; 48 hours, MTT.
Test [3] concerns TNF-α. Nature of the test: In vitro measurement of TNF-α in human PBMC. It counts as cell-based. The following applies: at 1 μM, LPS.
In test [4] the test system is TNF-α. Nature of the test: LPS induced sepsis for measurement of TNF-α inhibition in mice. It is filed as in vivo. The following applies: 50 mg/kg bw oral; female Swiss albino mice; serum 90 minutes after LPS. The method, then:
LPS Induced Sepsis for Measurement of TNF-α Inhibition in Mice
The LPS induced sepsis model in mice was performed as described by Les sekut et al (J Lab Clin Med 1994; 124:813-20). Female Swiss albino mice were selected with their body weights being equivalent within each group. The mice were fasted for 20 hours with free access to water. The mice were dosed orally with the test compound suspended in vehicle containing 0.5% Tween 80 in 0.25% Carboxy-methylcellulose sodium salt. The control mice were administered the vehicle alone. After 30 minutes of oral dosing, the mice were injected with 500 μg of Lipopolysaccharide (Escherichia coli, LPS: B4 from Sigma) in phosphate buffer saline solution into the intraperitoneal cavity of the mice. After 90 minutes of LPS administration, the mice were bled via retro-orbital sinus puncture. Blood samples were stored overnight at 4° C. Serum samples were collected by centrifuging the samples at 4000 rpm for 15 minutes at 4° C. Immediately the serum samples were analysed for TNF-α levels, using commercially available mouse TNF-α ELISA kit (Amersham Biosciences) and assay was performed by the manufacturer instruction.

Sequence of purified recombinant COX-1 enzyme (P23219 24-599): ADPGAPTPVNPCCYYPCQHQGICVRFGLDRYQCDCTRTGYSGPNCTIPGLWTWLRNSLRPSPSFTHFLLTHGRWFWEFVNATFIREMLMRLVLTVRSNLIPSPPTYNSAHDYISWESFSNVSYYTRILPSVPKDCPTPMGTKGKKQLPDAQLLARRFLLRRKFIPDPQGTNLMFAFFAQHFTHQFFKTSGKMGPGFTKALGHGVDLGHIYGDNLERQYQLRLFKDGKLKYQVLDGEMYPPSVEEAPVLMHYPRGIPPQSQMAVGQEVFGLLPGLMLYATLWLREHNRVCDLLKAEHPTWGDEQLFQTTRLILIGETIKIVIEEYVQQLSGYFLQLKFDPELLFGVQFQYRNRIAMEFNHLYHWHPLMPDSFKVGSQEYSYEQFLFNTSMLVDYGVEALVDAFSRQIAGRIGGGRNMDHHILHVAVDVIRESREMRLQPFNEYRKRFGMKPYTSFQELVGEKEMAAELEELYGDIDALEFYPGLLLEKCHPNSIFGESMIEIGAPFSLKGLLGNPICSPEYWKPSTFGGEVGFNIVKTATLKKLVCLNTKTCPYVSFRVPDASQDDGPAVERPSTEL

With `CNc1nc(-c2ccncc2)nc(SC)c1C(=O)Nc1ccc(OC)cc1` [Example 14, N-(4-Methoxyphenyl)-4-(methylamino)-6-(methylthio)-2-pyridin-4-ylpyrimidine-5-carboxamide], in test [1], the “COX-1 Inhibition (%)” value is reported as “Not Active”. Further, the “Inhibition of edema (%) at 5 mg/kg” value in test [2] was 31.02%. The molecule also came in with a GI50 in the test on NCI-H460 of 5.15 µM. The molecule also showed an inhibition at 1 µM with TNF-α [3] of 36.8%. Further, the “TNF-α Inhibition (%) at 50 mg/kg bw” value in the test with TNF-α [4] turned out to be 18.74%.

As usually defined, the GI50 is the concentration at which growth is held to half of that of the control. A lower GI50 goes with more potent growth inhibition. As a reminder, the inhibition is the percentage by which the read-out fell short of the control. Read a high inhibition as a response far below the control.

(Values after patent US7759350B2, “Pyrimidine carboxamides” (Orchid Research Laboratories Ltd., priority 2005, dated 2010).)
